The record followed here is patent US5530126A, “Process for the preparation of substituted 6-(pyrazol-3yl)-1,4-benzoxazin-3-ones” (Monsanto Company, priority 1994, dated 1996).

Type in all cases: in vivo
For assay [1], the system named is Cocklebur. Description: Post-emergence herbicide test. To be noted: Xanthium strumarium, read-out: % plant inhibition (Cobu); for inhibition at 11210 g/ha: 11.21 kg/ha; for inhibition at 1120 g/ha: 1.12 kg/ha. The method in brief:
(§1)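 Foliar spray trial in greenhouse pans: two- to three-week-old plants treated at 200 gallons/acre by atomizer, spray containing about 0.4% emulsifier. Percent inhibition compared with untreated controls was recorded around day 11.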

Assay [2] relates to Morningglory. As to the kind of experiment: Post-emergence herbicide test. The conditions noted are these: Ipomoea, read-out: % plant inhibition (Mogl); for inhibition at 11210 g/ha: 11.21 kg/ha; for inhibition at 1120 g/ha: 1.12 kg/ha. Summed up: as §1
Assay [3] has as its system Barnyardgrass. As to the kind of experiment: Post-emergence herbicide test. The conditions noted are these: Echinochloa crus-galli, read-out: % plant inhibition (Bygr); for inhibition at 11210 g/ha: 11.21 kg/ha; for inhibition at 1120 g/ha: 1.12 kg/ha. The method in brief:
as §1

Assay [4] concerns Downy Brome. Description: Post-emergence herbicide test. To be noted: Bromus tectorum, read-out: % plant inhibition (Dobr); for inhibition at 11210 g/ha: 11.21 kg/ha; for inhibition at 1120 g/ha: 1.12 kg/ha. The method in brief:
as §1

Assay [5] relates to Velvetleaf. As to the kind of experiment: Post-emergence herbicide test. To be noted: Abutilon theophrasti, read-out: % plant inhibition (Vele); for inhibition at 11210 g/ha: 11.21 kg/ha; for inhibition at 1120 g/ha: 1.12 kg/ha. The method in brief: as §1
Assay [6] relates to Annual bluegrass. As to the kind of experiment: Post-emergence herbicide test. To be noted: read-out: % plant inhibition (Anbg); for inhibition at 11210 g/ha: 11.21 kg/ha; for inhibition at 1120 g/ha: 1.12 kg/ha. The method in brief: as §1
Assay [7] concerns Seedling johnsongrass. As to the kind of experiment: Post-emergence herbicide test. To be noted: Sorghum halepense, read-out: % plant inhibition (Sejg); for inhibition at 11210 g/ha: 11.21 kg/ha; for inhibition at 1120 g/ha: 1.12 kg/ha. The method in brief: as §1
Assay [8] relates to Indian Mustard. Description: Post-emergence herbicide test. To be noted: Brassica juncea, read-out: % plant inhibition (Inmu); for inhibition at 11210 g/ha: 11.21 kg/ha; for inhibition at 1120 g/ha: 1.12 kg/ha. The method in brief:
as §1

In assay [9] the test system is Wild buckwheat. Description: Post-emergence herbicide test. The conditions noted are these: Fallopia convolvulus, read-out: % plant inhibition (Wibw); for inhibition at 11210 g/ha: 11.21 kg/ha; for inhibition at 1120 g/ha: 1.12 kg/ha. Summed up: as §1
The test system of assay [10] is Yellow nutsedge. As to the kind of experiment: Post-emergence herbicide test. The conditions noted are these: Cyperus, read-out: % plant inhibition (Yens); for inhibition at 11210 g/ha: 11.21 kg/ha; for inhibition at 1120 g/ha: 1.12 kg/ha. The method in brief: as §1
The subject of assay [11] is Cocklebur. Description: Pre-emergence herbicide test. To be noted: Xanthium strumarium, read-out: % plant inhibition (Cobu); for inhibition at 11210 g/ha: 11.21 kg/ha; for inhibition at 1120 g/ha: 1.12 kg/ha. The method in brief:
(§2)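 Pre-emergence soil application: compound in acetone or water carrier sprayed onto seeded topsoil surface, overlaid with untreated soil. Pans kept on greenhouse bench, watered from below. Read-out % inhibition, ~11 days post-treatment.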

In assay [12] the test system is Morningglory. As to the kind of experiment: Pre-emergence herbicide test. The conditions noted are these: Ipomoea, read-out: % plant inhibition (Mogl); for inhibition at 11210 g/ha: 11.21 kg/ha; for inhibition at 1120 g/ha: 1.12 kg/ha. The method in brief: as §2
Assay [13] deals with Barnyardgrass. As to the kind of experiment: Pre-emergence herbicide test. To be noted: Echinochloa crus-galli, read-out: % plant inhibition (Bygr); for inhibition at 11210 g/ha: 11.21 kg/ha; for inhibition at 1120 g/ha: 1.12 kg/ha. Summed up: as §2
The subject of assay [14] is Downy Brome. As to the kind of experiment: Pre-emergence herbicide test. To be noted: Bromus tectorum, read-out: % plant inhibition (Dobr); for inhibition at 11210 g/ha: 11.21 kg/ha; for inhibition at 1120 g/ha: 1.12 kg/ha. The method in brief: as §2
For assay [15], the system named is Velvetleaf. As to the kind of experiment: Pre-emergence herbicide test. The conditions noted are these: Abutilon theophrasti, read-out: % plant inhibition (Vele); for inhibition at 11210 g/ha: 11.21 kg/ha; for inhibition at 1120 g/ha: 1.12 kg/ha. The method in brief:
as §2

In assay [16] the test system is Annual bluegrass. As to the kind of experiment: Pre-emergence herbicide test. The conditions noted are these: read-out: % plant inhibition (Anbg); for inhibition at 11210 g/ha: 11.21 kg/ha; for inhibition at 1120 g/ha: 1.12 kg/ha. Summed up: as §2
Assay [17] has as its system Seedling johnsongrass. Description: Pre-emergence herbicide test. The conditions noted are these: Sorghum halepense, read-out: % plant inhibition (Sejg); for inhibition at 11210 g/ha: 11.21 kg/ha; for inhibition at 1120 g/ha: 1.12 kg/ha. The method in brief: as §2
In assay [18] the test system is Indian Mustard. As to the kind of experiment: Pre-emergence herbicide test. The conditions noted are these: Brassica juncea, read-out: % plant inhibition (Inmu); for inhibition at 11210 g/ha: 11.21 kg/ha; for inhibition at 1120 g/ha: 1.12 kg/ha. The method in brief:
as §2

Assay [19] deals with Wild buckwheat. Description: Pre-emergence herbicide test. To be noted: Fallopia convolvulus, read-out: % plant inhibition (Wibw); for inhibition at 11210 g/ha: 11.21 kg/ha; for inhibition at 1120 g/ha: 1.12 kg/ha. Summed up:
as §2

In assay [20] the test system is Yellow nutsedge. As to the kind of experiment: Pre-emergence herbicide test. The conditions noted are these: Cyperus, read-out: % plant inhibition (Yens); for inhibition at 11210 g/ha: 11.21 kg/ha; for inhibition at 1120 g/ha: 1.12 kg/ha. Summed up: as §2

For the compound `COc1cc(F)c(-c2c(Cl)c(C(F)(F)F)nn2C)cc1F` [Compound 71], the inhibition (usually the percentage by which the read-out fell short of the control) at 11210 g/ha in assay [1] turned out to be 30%; in [2], 20%; in assay [3], 0%; in assay [4], 0%; in assay [5] it was 20%; in [6], 0%. For the same compound, the inhibition at 11210 g/ha came out at 0% in assay [7]; 20% in [8]; 40% in assay [9]; 0% in [10]; 0% in assay [11]; 30% in assay [12]. In addition, the inhibition at 11210 g/ha worked out at 0% in assay [13]; 10% in assay [14]; 60% in assay [15]; 90% in [16]; 40% in assay [17]; 30% in [18]. Moreover, the figures for the inhibition at 11210 g/ha in assay [19] and in assay [20] were 70% and 0%, respectively.

As to `Cc1cc(-c2c(Cl)c(C(F)(F)F)nn2C)c(F)cc1Cl` [Compound 63], the inhibition at 11210 g/ha in [1] amounted to 0%; in assay [2] it was 100%; in assay [3] it was 20%; in assay [4], 20%; in [5] it was 100%; in assay [6] it was 20%. For the same compound, the inhibition at 11210 g/ha stood at 70% in [7]; 40% in assay [8]; 100% in assay [9]; 0% in [10]; 60% in [11]; 100% in assay [12]. Moreover, the inhibition at 11210 g/ha in assay [13], in assay [14], in assay [15], in assay [16], in assay [17] and in [18] was 100% in each case. Moreover, the inhibition at 11210 g/ha in assay [19] worked out at 100%; in [20], 0%.

Turning to `CCOC(=O)C(C)OC(=O)c1cc(-c2nn(C)c(C(F)(F)F)c2Cl)c(F)cc1Cl` (centres unmarked) [Compound 138, 2-Chloro-5-(4-chloro-1-methyl-5-(trifluoromethyl)-1H-pyrazol-3-yl)-4-fluorobenzoic acid, 2-ethoxy-1-methyl-2-oxoethyl ester], the inhibition at 1120 g/ha in assay [1], in [2], in assay [3], in assay [4], in assay [5] and in assay [6] was 100% each time. Moreover, the inhibition at 1120 g/ha was 100% in assay [7]; 100% in assay [8]; 100% in assay [9]; 20% in assay [10]; 100% in assay [11]; 100% in assay [12]. Besides, the inhibition at 1120 g/ha turned out to be 50% in [13]; 90% in assay [14]; 100% in assay [15]; 40% in assay [16]; 30% in [17]; 100% in [18]. Further, the inhibition at 1120 g/ha in [19] is 100%; in assay [20] it was 20%.

In the case of `C#CCOc1cc(-c2c(Cl)c(C(F)(F)F)nn2C)c(F)cc1Cl` [Compound 76], the inhibition at 1120 g/ha in assay [1] amounted to 40%; in [2], 50%; in [3], 50%; in [4] it was 30%; in assay [5], 90%; in assay [6] it was 40%. The inhibition at 1120 g/ha in assay [7] turned out to be 40%; in assay [8], 70%; in [9], 100%; in [10], 10%; in assay [11], 20%; in assay [12], 40%. In addition, the inhibition at 1120 g/ha in [13] amounted to 0%; in [14] it was 10%; in [15], 50%; in assay [16], 10%; in assay [17], 0%; in [18], 60%. The results for the inhibition at 1120 g/ha in assay [19] and in [20] were 100% and 0%, respectively.

For `CC(C)CCOC(=O)c1cc(-c2nn(C)c(C(F)(F)F)c2Cl)c(F)cc1Cl` [Compound 141], the inhibition at 1120 g/ha is 90% in [1]; 100% in [2]; 70% in [3]; 100% in assay [4]; 100% in assay [5]; 90% in assay [6]. Further, the inhibition at 1120 g/ha in [7] is 90%; in assay [8], 80%; in assay [9], 100%; in assay [10] it was 0%; in [11], 70%; in [12], 80%. For the same compound, the inhibition at 1120 g/ha came out at 20% in [13]; 70% in assay [14]; 70% in assay [15]; 20% in [16]; 50% in assay [17]; 80% in assay [18]. In addition, the inhibition at 1120 g/ha is 90% in [19] and 0% in assay [20].

As for `Cn1nc(-c2cc(NS(C)(=O)=O)c(Cl)cc2Cl)c(Cl)c1C(F)(F)F` [Compound 91], the inhibition at 1120 g/ha in [1] was 100%; in assay [2], 60%; in assay [3], 30%; in assay [4] it was 40%; in assay [5], 40%; in assay [6] it was 50%. For the same compound, the inhibition at 1120 g/ha in assay [7] amounted to 40%; in [8], 50%; in assay [9], 80%; in assay [10], 10%; in assay [11], 20%; in assay [12] it was 90%. Also, the inhibition at 1120 g/ha in [13] came out at 0%; in [14], 0%; in [15], 100%; in [16], 0%; in assay [17], 0%; in assay [18], 90%. Moreover, the inhibition at 1120 g/ha was 70% in [19] and 0% in assay [20].

With `Cc1cc(-c2nn(C)c(C(F)(F)F)c2Br)c(F)cc1Cl` [Compound 125], the inhibition at 1120 g/ha was determined as 40% in assay [1]; 30% in assay [2]; 0% in [3]; 0% in assay [4]; 100% in assay [5]; 20% in assay [6]. Also, the inhibition at 1120 g/ha in assay [7] turned out to be 0%; in assay [8], 30%; in [9], 100%; in assay [10], 0%; in [11], 30%; in [12], 90%. For the same compound, the inhibition at 1120 g/ha in assay [13] came out at 100%; in [14] it was 90%; in assay [15], 100%; in [16], 100%; in [17], 100%; in assay [18], 100%. Moreover, the inhibition at 1120 g/ha in assay [19] came to 100%; in assay [20] it was 0%.
